Data taken from publication PMC6675791, “Clozapine-dependent inhibition of EGF/neuregulin receptor (ErbB) kinases” (Translational Psychiatry, 2019).

Tests used:
Assay in all cases: in vitro kinase assay (ELISA, Tyr-Glu heteropolymer substrate, […] ATP, […] Triton X-100)
Type in all cases: biochemical
ErbB4 kinase = target: T1, ErbB4 kinase (Homo sapiens, UniProt Q15303)
T1 construct: recombinant truncated ErbB4 kinase (intracellular domain, lacking the extracellular domain)

ErbB2 kinase = target: T2, ErbB2 kinase (Homo sapiens, UniProt P04626)
T2 construct: recombinant truncated ErbB2 kinase (intracellular domain, lacking the extracellular domain)

ErbB1 kinase = target: T3, ErbB1 kinase (Homo sapiens, UniProt P00533)
T3 construct: gene EGFR; recombinant truncated ErbB1 kinase (intracellular domain, lacking the extracellular domain)
T3 sequence (P00533 669-1210 limits assumed): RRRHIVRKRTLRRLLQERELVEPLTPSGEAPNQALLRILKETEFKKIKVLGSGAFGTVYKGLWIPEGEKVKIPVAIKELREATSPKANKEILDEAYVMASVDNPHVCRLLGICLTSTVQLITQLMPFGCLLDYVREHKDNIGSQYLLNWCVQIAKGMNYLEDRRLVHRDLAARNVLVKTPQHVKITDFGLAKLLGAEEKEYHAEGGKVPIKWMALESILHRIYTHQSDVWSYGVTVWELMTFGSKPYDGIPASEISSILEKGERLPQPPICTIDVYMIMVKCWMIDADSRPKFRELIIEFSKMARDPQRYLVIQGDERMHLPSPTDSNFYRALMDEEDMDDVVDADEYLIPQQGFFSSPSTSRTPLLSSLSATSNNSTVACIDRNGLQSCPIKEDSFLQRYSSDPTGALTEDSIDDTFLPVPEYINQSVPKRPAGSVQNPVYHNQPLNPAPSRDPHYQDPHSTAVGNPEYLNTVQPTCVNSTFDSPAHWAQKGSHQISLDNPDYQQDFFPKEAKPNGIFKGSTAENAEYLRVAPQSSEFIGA

T2 sequence (P04626 676-1255 limits assumed): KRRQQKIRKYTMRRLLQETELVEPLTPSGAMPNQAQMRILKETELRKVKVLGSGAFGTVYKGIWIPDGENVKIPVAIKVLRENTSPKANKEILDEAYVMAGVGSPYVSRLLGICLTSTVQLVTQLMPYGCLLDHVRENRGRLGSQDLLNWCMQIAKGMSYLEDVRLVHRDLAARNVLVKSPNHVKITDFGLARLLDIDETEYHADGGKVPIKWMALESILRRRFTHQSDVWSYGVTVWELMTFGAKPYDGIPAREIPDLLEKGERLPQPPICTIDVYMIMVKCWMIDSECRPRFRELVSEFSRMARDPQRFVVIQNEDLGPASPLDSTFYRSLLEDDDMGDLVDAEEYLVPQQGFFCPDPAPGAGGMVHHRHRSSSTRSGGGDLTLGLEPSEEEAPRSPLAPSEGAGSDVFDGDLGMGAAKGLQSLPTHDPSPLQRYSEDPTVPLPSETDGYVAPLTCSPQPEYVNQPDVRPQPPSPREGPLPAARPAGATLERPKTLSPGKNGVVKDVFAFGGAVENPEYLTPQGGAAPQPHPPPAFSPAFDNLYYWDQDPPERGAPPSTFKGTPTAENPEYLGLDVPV
T1 sequence (Q15303 676-1308 limits assumed): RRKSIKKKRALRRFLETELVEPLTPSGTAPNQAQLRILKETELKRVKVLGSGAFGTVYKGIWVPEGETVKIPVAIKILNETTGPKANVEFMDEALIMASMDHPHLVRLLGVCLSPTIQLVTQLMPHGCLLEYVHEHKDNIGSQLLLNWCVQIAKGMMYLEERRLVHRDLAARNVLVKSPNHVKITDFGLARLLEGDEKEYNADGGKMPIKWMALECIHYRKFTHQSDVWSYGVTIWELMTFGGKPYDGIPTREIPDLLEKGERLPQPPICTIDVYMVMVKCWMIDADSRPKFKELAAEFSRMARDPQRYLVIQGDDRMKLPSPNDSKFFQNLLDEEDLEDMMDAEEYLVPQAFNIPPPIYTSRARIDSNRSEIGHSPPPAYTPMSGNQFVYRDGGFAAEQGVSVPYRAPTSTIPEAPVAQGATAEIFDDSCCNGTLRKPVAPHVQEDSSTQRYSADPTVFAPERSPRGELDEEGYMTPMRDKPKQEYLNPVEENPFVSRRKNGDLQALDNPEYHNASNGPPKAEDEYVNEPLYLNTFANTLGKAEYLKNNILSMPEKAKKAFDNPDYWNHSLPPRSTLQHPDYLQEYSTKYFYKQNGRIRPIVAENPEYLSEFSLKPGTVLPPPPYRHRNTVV

CN1CCN(C2=Nc3cc(Cl)ccc3Nc3ccccc32)CC1 [CLZ, clozapine]
in vitro kinase assay (ELISA, Tyr-Glu heteropolymer substrate, 4 mM ATP, 0.2% Tr) (ErbB4 kinase): 30 µM | in vitro kinase assay (ELISA, Tyr-Glu heteropolymer substrate, 4 mM ATP, 0.2% Tr) (ErbB2 kinase): 3 µM | in vitro kinase assay (ELISA, Tyr-Glu heteropolymer substrate, 4 mM ATP, 0.2% Tr) (ErbB1 kinase): 30 µM
